According to patent publication US20250019398A1, “NONAMERIC PEPTIDE HAVING EXCELLENT ANTIBACTERIAL ACTIVITY AGAINST GRAM-NEGATIVE BACTERIA AND ENANTIOMER THEREOF” (priority 2021, published 2025):
In brackets after ≈: the same amount, converted by molar mass. Entries after “also recorded” stand apart in the source; their conditions may differ. Like-named read-outs stand apart in the source and are kept apart here. Square brackets hold non-standard residues; d marks the D form. Ends that are not written are not given here. Peptide text beside a SMILES is read from it.

Legend:
LPS = experiment: LAL chromogenic endotoxin assay (LPS neutralization); format: biochemical; conditions: LPS 2 ng/mL; peptide concentration of the values not stated (3.1-50 μM tested)
Experimental: Peptide-mediated LPS-neutralizing activity was determined using a Limulus amebocyte lysate (LAL) chromogenic endotoxin quantification kit (GenScript, New Jersey, USA). 3.1, 6.3, 10, 12.5, 25, and 50 μM of each peptide were allowed to react so as to interact with LPS (2 ng/mL) at 37° C. for 10 minutes. LL-37, which is known to have high LPS-neutralizing ability, was used as a control. After an LAL enzyme (10 μL) was added to the peptide-LPS complex and the resulting mixture was allowed to react for 10 minutes, a chromogenic substrate was added thereto. An endotoxin level was shown by measuring the absorbance at 545 nm in triplicate and expressed in endotoxin units (EUs) per milliliter.

[1] = system: sheep red blood cells (sRBCs); experiment: Hemolysis of sheep red blood cells; format: cell-based; conditions: for Hemolysis of sRBCs: 100 μM, 1 h
Experimental: Peptide-induced toxicity was determined by hemolysis of sheep red blood cells (sRBCs). Fresh sRBCs were washed three times or more with phosphate buffered saline (PBS), and debris was removed by centrifugation (1000×g, 5 minutes, 4° C.). All the peptides including a melittin control (0.2 to 100 μM) and a positive control (1% (v/v) Triton X-100) were cultured with 4% (v/v) sRBCs at 37° C. for 1 h, and then centrifuged at 1000×g for 5 minutes. The supernatant was measured at 405 nm using a microplate reader.

[2] = system: carbapenem-resistant E. coli NCCP16044 (CREC 16044); experiment: microbe, parasite or virus in culture; format: cell-based; conditions: 16 hours, read-out: Minimal inhibitory concentration (MIC), CREC 16044
Excerpt: (§1) Among the bacterial strains used in the experiment, Escherichia coli KCTC 1682 was obtained from the Korean Collection for Type Cultures (KCTC) (Jeongeup, Korea), Acinetobacter baumannii KCCM 40203 and Pseudomonas aeruginosa KCCM 11328 were obtained from the Korean Culture Center of Microorganisms (KCCM) (Seoul, Korea), and Klebsiella pneumonia NCCP 16054 was obtained from the National Culture Collection for Pathogens (NCCP) (Osong, Korea). In addition, carbapenem-resistant E. coli NCCP16044 and carbapenem-resistant Klebsiella pneumonia NCCP 15782 were obtained from the NCCP, and three types of carbapenem-resistant A. baumanii CCARM 12004-6 were obtained from the Culture Collection of Antimicrobial Resistance Microbes (CCARM) (Cheongju City, Korea). The E. coli K1 (ATCC700973) strain used in the animal experiments was obtained from the American Type Culture Collection (ATCC) ([…]).
(§2) The antimicrobial activities of the peptides were measured by a minimal inhibitory concentration (MIC) analysis. The MIC was determined using a broth dilution method. All bacterial strains were grown overnight at 37° C. in a Muller-Hinton (MH) medium.

[3] = system: CRAB 12004 (carbapenem-resistant A. baumanii CCARM); experiment: MIC, broth dilution; format: cell-based, A. baumannii; conditions: 16 hours, read-out: Minimal inhibitory concentration (MIC), CRAB 12004
Excerpt: as §1, §2

[4] = system: CRAB 12005 (carbapenem-resistant A. baumanii CCARM); experiment: MIC, broth dilution; format: cell-based, A. baumannii; conditions: 16 hours, read-out: Minimal inhibitory concentration (MIC), CRAB 12005
Excerpt: as §1, §2

[5] = system: CRAB 12006 (carbapenem-resistant A. baumanii CCARM); experiment: MIC, broth dilution; format: cell-based, A. baumannii; conditions: 16 hours, read-out: Minimal inhibitory concentration (MIC), CRAB 12006
Excerpt: as §1, §2

[6] = system: Klebsiella pneumonia NCCP 16054; experiment: MIC, broth dilution; format: cell-based; conditions: standard Gram-negative bacteria, 16 hours
Excerpt: as §1, §2

[7] = system: carbapenem-resistant Klebsiella pneumonia NCCP 15782 (CRKP 15782); experiment: MIC, broth dilution; format: cell-based; conditions: 16 hours
Excerpt: as §1, §2

LPS (E. coli O111:B4) = experiment: BODIPY-TR cadaverine displacement assay (LPS binding); conditions: 4 μM, 30 minutes
Experimental: The binding ability of peptides to LPS was investigated by BODIPY-TR cadaverine (BC, Thermo Fisher Scientific, MA, USA) displacement assay (FIG. 2A). A probe complex was prepared by mixing 5 μg/mL BC and 5 μg/mL LPS (E. coli O111:B4, Sigma-Aldrich, St. Louis, MO, USA) in a 50 mM Tris buffer (pH 7.4) at room temperature for 6 hours. Peptides containing a polymyxin B (PMB) control (1 to 64 μM), which is known to have high LPS binding ability, were allowed to interact with the LPS-BC mixture in a black 96-well plate for 30 minutes. Relative fluorescence intensities were recorded using a fluorescence microplate reader (Molecular Devices, San Jose, USA) at an excitation wavelength of 580 nm and an emission wavelength of 620 nm.

[8] = system: RAW 264.7 mouse macrophages; experiment: WST-8 cytotoxicity; format: cell-based; conditions: 100 μM, 24 hours
Experimental: (§3) Additionally, for a cell-based toxicity assay, RAW 264.7 mouse macrophages and human kidney (HK)-2 cells were obtained from the Korean Cell Line Bank (Seoul, Korea), and cells were maintained in a DMEM culture medium (Thermo Fischer Scientific Inc., MA, USA) supplemented with 10% fetal bovine serum and 1% penicillin/streptomycin at 37° C. in a humidified 5% CO2 incubator. The cytotoxicity of the peptides was analyzed using a WST-8 cell proliferation assay (Biomax Co, Ltd, Seoul, South Korea), and the experiment was performed according to the kit protocol. Cells (1×10^4) were seeded in a 96-well plate, the peptide treatment (0 to 100 μM) were initiated at 80% confluency and then the cells were cultured for 24 hours. After culturing, a WST-8 reagent was added and the change in absorbance was read at 450 nm relative to the reagent blank, and values were expressed as percent cell survival.

[9] = system: human kidney (HK)-2 cells; experiment: WST-8 cytotoxicity; format: cell-based; conditions: 100 μM, 24 hours
Experimental: as §3

[10] = system: Escherichia coli KCTC 1682; experiment: MIC, broth dilution; format: cell-based; conditions: standard Gram-negative bacteria, 16 hours; read-out: Minimal inhibitory concentration (MIC), E. coli
Excerpt: In addition, carbapenem-resistant E. coli NCCP16044 and carbapenem-resistant Klebsiella pneumonia NCCP 15782 were obtained from the NCCP, and three types of carbapenem-resistant A. baumanii CCARM 12004-6 were obtained from the Culture Collection of Antimicrobial Resistance Microbes (CCARM) (Cheongju City, Korea). The E. coli K1 (ATCC700973) strain used in the animal experiments was obtained from the American Type Culture Collection (ATCC) ([…]).
as §2

[11] = system: Pseudomonas aeruginosa KCCM 11328; experiment: MIC, broth dilution; format: cell-based; conditions: standard Gram-negative bacteria, 16 hours
Excerpt: as §1, §2

[12] = system: Acinetobacter baumannii KCCM 40203; experiment: MIC, broth dilution; format: cell-based; conditions: standard Gram-negative bacteria, 16 hours
Excerpt: as §1, §2

A. baumannii = format: cell-based; conditions: 37° C.; for MIC, A. baumannii + Trypsin: peptide pre-cultured with trypsin 6 hours; for MIC, A. baumannii + α-Chymotrypsin: peptide pre-cultured with α-chymotrypsin 6 hours
Experimental: (§4) Proteolysis of peptides in serum has limited clinical use due to decreased bioavailability and half-life. Therefore, the stability of all the peptides pre-exposed to trypsin and chymotrypsin proteases was investigated and the relative growth inhibition of E. coli and A. baumannii was determined (Table 3). […] Thereafter, 100 μL of a peptide-protease mixture was added to 100 μL of a bacterial suspension (E. coli, A. baumannii, 2×10^5 CFU/mL), and the resulting mixture was further cultured at 37°° C. for 16 hours. A bacterial suspension without a peptide and protease was employed as a negative control. An analysis was performed in triplicates through independent experiments, and the degree of bacterial growth was measured at 600 nm using a microplate reader.

E. coli = format: cell-based; conditions: 37° C.; for MIC, E. coli + Trypsin: peptide pre-cultured with trypsin 6 hours; for MIC, E. coli + α-Chymotrypsin: peptide pre-cultured with α-chymotrypsin 6 hours
Experimental: as §4

[13] = In vivo toxicity (serum AST, ALT, BUN); design: species or system ICR mice; conditions: 1 mg/kg and 5 mg/kg i.p., 24 hours
Experimental: For in vivo toxicity measurements, ICR mice (n=5 per group) were injected intraperitoneally (i.p.) with R-Pro9-3D (1 mg and 5 mg/kg/day in PBS), and serum levels of aspartate aminotransferase (AST) and alanine aminotransferase (ALT) in the liver and BUN (blood urea nitrogen) in the kidney were measured using a standard kit manufactured by ASAN PHARM. Co., LTD.

[14] = sheep red blood cells, 200 μM used when no detectable hemolysis at 100 μM

LL-37
LPS neutralization (LPS): 76.5%

CC[C@@H](C)[C@@H](NC(=O)[C@@H](C)NC(=O)[C@@H](CC(C)C)NC(=O)[C@@H](Cc1c[nH]c2ccccc12)NC(=O)[C@@H](CC(C)C)NC(=O)[C@H](N)CCCNC(=N)N)C(=O)N[C@H](Cc1c[nH]c2ccccc12)C(=O)N[C@H](CCCNC(=N)N)C(=O)N[C@H](CCCNC(=N)N)C(N)=O [Pro9-3D, rlwlaiwrr-NH2] (H-[dR][dL][dW][dL][dA][dI][dW][dR][dR]-NH2)
HC10 (peptide concentration that induces 10% hemolysis) ([1]; red cells of sheep): 200 µM | MIC [2]: 8 µM (≈ 10.1 µg/mL) | MIC [3]: 8 µM (≈ 10.1 µg/mL) | MIC [4]: 8 µM (≈ 10.1 µg/mL) | MIC [5]: 8 µM (≈ 10.1 µg/mL) | Minimal inhibitory concentration (MIC), K. pneumonia [6]: 8 µM (≈ 10.1 µg/mL) | Minimal inhibitory concentration (MIC), CRKP 15782 [7]: 8 µM (≈ 10.1 µg/mL)

polymyxin B [PMB]
BC displacement (LPS binding) (LPS (E. coli O111:B4)): 76.6%

RRWIALWLR-NH2 [R-Pro9-3]
Hemolysis of sRBCs [1]: 3.4% | HC10 (peptide concentration that induces 10% hemolysis) [1, 14]: 200 µM | MIC [2]: 16 µM | Toxicity in RAW264.7 cells [8]: neither R-Pro9-3 nor Pro9-3 showed toxicity; also recorded: non-toxic | Toxicity in human kidney (HK)-2 cells [9]: neither R-Pro9-3 nor Pro9-3 showed toxicity; also recorded: non-toxic | MIC [10]: 16 µM | MIC [3]: 32 µM | MIC [4]: 16 µM | MIC [5]: 16 µM | Minimal inhibitory concentration (MIC), P. aeruginosa [11]: 64 µM | Minimal inhibitory concentration (MIC), K. pneumonia [6]: 32 µM | Minimal inhibitory concentration (MIC), A. baumannii [12]: 16 µM | Minimal inhibitory concentration (MIC), CRKP 15782 [7]: 16 µM | MIC, A. baumannii + Trypsin (A. baumannii): >64 µM | MIC, A. baumannii + α-Chymotrypsin (A. baumannii): >64 µM | MIC, E. coli + Trypsin (E. coli): >64 µM | MIC, E. coli + α-Chymotrypsin (E. coli): 64 µM

RLWLAIWRR-NH2 [Pro9-3]
HC10 (peptide concentration that induces 10% hemolysis) ([1]; red cells of sheep): 200 µM | MIC [2]: 16 µM | Toxicity in RAW264.7 cells [8]: neither R-Pro9-3 nor Pro9-3 showed toxicity; also recorded: non-toxic | Toxicity in human kidney (HK)-2 cells [9]: neither R-Pro9-3 nor Pro9-3 showed toxicity; also recorded: non-toxic | MIC [3]: 16 µM | MIC [4]: 16 µM | MIC [5]: 16 µM | Minimal inhibitory concentration (MIC), K. pneumonia [6]: 64 µM | Minimal inhibitory concentration (MIC), CRKP 15782 [7]: 64 µM

CC[C@@H](C)[C@@H](NC(=O)[C@@H](Cc1c[nH]c2ccccc12)NC(=O)[C@@H](CCCNC(=N)N)NC(=O)[C@H](N)CCCNC(=N)N)C(=O)N[C@H](C)C(=O)N[C@H](CC(C)C)C(=O)N[C@H](Cc1c[nH]c2ccccc12)C(=O)N[C@H](CC(C)C)C(=O)N[C@H](CCCNC(=N)N)C(N)=O [R-Pro9-3D, rrwialwlr-NH2] (H-[dR][dR][dW][dI][dA][dL][dW][dL][dR]-NH2)
Serum AST, ALT and BUN levels (in vivo toxicity) [13]: no clinically significant levels; also recorded: did not increase the above enzyme levels | Hemolysis of sRBCs [1]: 1.2% | HC10 (peptide concentration that induces 10% hemolysis) [1, 14]: 200 µM | MIC [2]: 4 µM (≈ 5.07 µg/mL) | Toxicity in RAW264.7 cells [8]: 20.3% | Toxicity in human kidney (HK)-2 cells [9]: 9.6% | MIC [10]: 8 µM (≈ 10.1 µg/mL) | MIC [3]: 4 µM (≈ 5.07 µg/mL) | MIC [4]: 4 µM (≈ 5.07 µg/mL) | MIC [5]: 4 µM (≈ 5.07 µg/mL) | Minimal inhibitory concentration (MIC), P. aeruginosa [11]: 8 µM (≈ 10.1 µg/mL) | Minimal inhibitory concentration (MIC), K. pneumonia [6]: 8 µM (≈ 10.1 µg/mL) | Minimal inhibitory concentration (MIC), A. baumannii [12]: 4 µM (≈ 5.07 µg/mL) | Minimal inhibitory concentration (MIC), CRKP 15782 [7]: 8 µM (≈ 10.1 µg/mL) | MIC, A. baumannii + Trypsin (A. baumannii): 4 µM | MIC, A. baumannii + α-Chymotrypsin (A. baumannii): 4 µM | MIC, E. coli + Trypsin (E. coli): 8 µM | MIC, E. coli + α-Chymotrypsin (E. coli): 8 µM

C[C@@H](O)[C@H]1C(=O)N2C(C(=O)O)=C(SCCN=CN)C[C@H]12 [Imipenem]
MIC ([2]; Escherichia coli): 8 µM (≈ 2.39 µg/mL) | MIC ([3]; Acinetobacter baumannii): 64 µM (≈ 19.2 µg/mL) | MIC ([4]; Acinetobacter baumannii): 64 µM (≈ 19.2 µg/mL) | MIC ([5]; Acinetobacter baumannii): 64 µM (≈ 19.2 µg/mL)
